Laboratory results as given in PubChem BioAssay AID1259407 (Chemical Carcinogenesis Research Information System (CCRIS), 2018).
The source made the active and inactive calls. No rule for the calls is given here.

System: CCRIS mutagenicity, Ames/micronucleus/aberration tests
Assay: CCRIS mutagenicity studies
[1] = Test System: AMES SALMONELLA TYPHIMURIUM, Strain/Indicator: TA98, Metabolic Activation: NONE, Method: STANDARD PLATE
[2] = Test System: AMES SALMONELLA TYPHIMURIUM, Strain/Indicator: TA98, Metabolic Activation: RAT, LIVER, S-9, AROCLOR 1254, Method: STANDARD PLATE
[3] = Test System: AMES SALMONELLA TYPHIMURIUM, Strain/Indicator: TA100, Metabolic Activation: NONE, Method: STANDARD PLATE
[4] = Test System: AMES SALMONELLA TYPHIMURIUM, Strain/Indicator: TA100, Metabolic Activation: RAT, LIVER, S-9, AROCLOR 1254, Method: STANDARD PLATE
[5] = Test System: AMES SALMONELLA TYPHIMURIUM, Strain/Indicator: TA1535, Metabolic Activation: NONE, Method: STANDARD PLATE
[6] = Test System: AMES SALMONELLA TYPHIMURIUM, Strain/Indicator: TA1535, Metabolic Activation: RAT, LIVER, S-9, AROCLOR 1254, Method: STANDARD PLATE
[7] = Test System: AMES SALMONELLA TYPHIMURIUM, Strain/Indicator: TA1538, Metabolic Activation: NONE, Method: STANDARD PLATE
[8] = Test System: AMES SALMONELLA TYPHIMURIUM, Strain/Indicator: TA1538, Metabolic Activation: RAT, LIVER, S-9, AROCLOR 1254, Method: STANDARD PLATE
[9] = Test System: AMES SALMONELLA TYPHIMURIUM, Strain/Indicator: TA98, Metabolic Activation: NONE, Method: PREINCUBATION
[10] = Test System: AMES SALMONELLA TYPHIMURIUM, Strain/Indicator: TA100, Metabolic Activation: NONE, Method: PREINCUBATION

O=C(O)c1cc(O)c2c(c1)C(=O)c1cccc(O)c1C2=O
mutagenic call (Test System: AMES SALMONELLA TYPHIMURIUM, Strain/Indicator: TA97A, Metabolic Activation: NONE, Method: STANDARD PLATE): inactive; negative
mutagenic call (Test System: AMES SALMONELLA TYPHIMURIUM, Strain/Indicator: TA97A, Metabolic Activation: RAT, LIVER, S-9, AROCLOR 1254, Method: STANDARD PLATE): inactive; negative
mutagenic call [1]: inactive; negative
mutagenic call [2]: inactive; negative
mutagenic call [3]: inactive; negative
mutagenic call [4]: inactive; negative
mutagenic call (Test System: AMES SALMONELLA TYPHIMURIUM, Strain/Indicator: TA102, Metabolic Activation: NONE, Method: STANDARD PLATE): inactive; negative
mutagenic call (Test System: AMES SALMONELLA TYPHIMURIUM, Strain/Indicator: TA102, Metabolic Activation: RAT, LIVER, S-9, AROCLOR 1254, Method: STANDARD PLATE): inactive; negative
mutagenic call [5]: inactive; negative
mutagenic call [6]: inactive; negative
mutagenic call (Test System: AMES SALMONELLA TYPHIMURIUM, Strain/Indicator: TA1537, Metabolic Activation: NONE, Method: STANDARD PLATE): inactive; negative
mutagenic call (Test System: AMES SALMONELLA TYPHIMURIUM, Strain/Indicator: TA1537, Metabolic Activation: RAT, LIVER, S-9, AROCLOR 1254, Method: STANDARD PLATE): inactive; negative
mutagenic call [7]: inactive; negative
mutagenic call [8]: inactive; negative
mutagenic call (Test System: Ames Salmonella typhimurium, Strain/Indicator: TA102, Metabolic Activation: None, Method: Preincubation): active; positive
mutagenic call (Test System: Ames Salmonella typhimurium, Strain/Indicator: TA102, Metabolic Activation: Rat, Liver, S-9, Aroclor 1254 in 0.154 M KCl, Method: Preincubation): active; positive
mutagenic call (Test System: MOUSE LYMPHOMA, Strain/Indicator: L5178Y (TK+/TK-), Metabolic Activation: NONE, Method: SUSPENSION/PLATE): inactive; negative
mutagenic call (Test System: MOUSE LYMPHOMA, Strain/Indicator: L5178Y (TK+/TK-), Metabolic Activation: RAT, LIVER, S-9, AROCLOR 1254, Method: SUSPENSION/PLATE): inactive; negative

CCc1ccccc1O
mutagenic call (Test System: AMES SALMONELLA TYPHIMURIUM, Strain/Indicator: TA97, Metabolic Activation: HAMSTER, LIVER, S-9, AROCLOR 1254 (10 OR 30%), Method: PREINCUBATION): inactive; negative
mutagenic call (Test System: AMES SALMONELLA TYPHIMURIUM, Strain/Indicator: TA97, Metabolic Activation: NONE, Method: PREINCUBATION): inactive; negative
mutagenic call (Test System: AMES SALMONELLA TYPHIMURIUM, Strain/Indicator: TA97, Metabolic Activation: RAT, LIVER, S-9, AROCLOR 1254 (10 OR 30%), Method: PREINCUBATION): inactive; negative
mutagenic call (Test System: AMES SALMONELLA TYPHIMURIUM, Strain/Indicator: TA98, Metabolic Activation: HAMSTER, LIVER, S-9, AROCLOR 1254 (10 OR 30%), Method: PREINCUBATION): inactive; negative
mutagenic call [9]: inactive; negative
mutagenic call (Test System: AMES SALMONELLA TYPHIMURIUM, Strain/Indicator: TA98, Metabolic Activation: RAT, LIVER, S-9, AROCLOR 1254 (10 OR 30%), Method: PREINCUBATION): inactive; negative
mutagenic call (Test System: AMES SALMONELLA TYPHIMURIUM, Strain/Indicator: TA100, Metabolic Activation: HAMSTER, LIVER, S-9, AROCLOR 1254 (10 OR 30%), Method: PREINCUBATION): inactive; negative
mutagenic call [10]: inactive; negative
mutagenic call (Test System: AMES SALMONELLA TYPHIMURIUM, Strain/Indicator: TA100, Metabolic Activation: RAT, LIVER, S-9, AROCLOR 1254 (10 OR 30%), Method: PREINCUBATION): inactive; negative
mutagenic call (Test System: AMES SALMONELLA TYPHIMURIUM, Strain/Indicator: TA1535, Metabolic Activation: HAMSTER, LIVER, S-9, AROCLOR 1254 (10 OR 30%), Method: PREINCUBATION): inactive; negative
mutagenic call (Test System: AMES SALMONELLA TYPHIMURIUM, Strain/Indicator: TA1535, Metabolic Activation: NONE, Method: PREINCUBATION): inactive; negative
mutagenic call (Test System: AMES SALMONELLA TYPHIMURIUM, Strain/Indicator: TA1535, Metabolic Activation: RAT, LIVER, S-9, AROCLOR 1254 (10 OR 30%), Method: PREINCUBATION): inactive; negative

C=CC(O)c1ccc2c(c1)OCO2 (stereo not drawn)
mutagenic call (Test System: UDS HUMAN FIBROBLASTS, Strain/Indicator: THY INCORP (NON-S-PHASE), Metabolic Activation: NONE, Method: AUTORADIOGRAPHY): active; positive

CCCCN(CC)c1c([N+](=O)[O-])cc(C(F)(F)F)cc1[N+](=O)[O-]
mutagenic call (End Point: In vitro Chromosomal aberration, Test System: CHO cells, Metabolic Activation: None): inactive; negative
mutagenic call (End Point: In vitro Chromosomal aberration, Test System: CHO cells, Metabolic Activation: Rodent, liver, S-9, Aroclor): inactive; negative

C[C@H](CCC(=O)O)[C@H]1CC[C@H]2[C@@H]3CC[C@@H]4CC(=O)CC[C@]4(C)[C@H]3C[C@H](O)[C@]12C
mutagenic call (Test System: AMES SALMONELLA TYPHIMURIUM, Strain/Indicator: TA98, Metabolic Activation: NONE, Method: FLUCTUATION TEST): inactive; negative
mutagenic call [9]: inactive; negative
mutagenic call (Test System: AMES SALMONELLA TYPHIMURIUM, Strain/Indicator: TA98, Metabolic Activation: RAT, LIVER, S-9, PCB, Method: PREINCUBATION): inactive; negative
mutagenic call (Test System: AMES SALMONELLA TYPHIMURIUM, Strain/Indicator: TA100, Metabolic Activation: NONE, Method: FLUCTUATION TEST): inactive; negative

CC(=O)N[C@@H](CSC(Cl)=C(Cl)Cl)C(=O)O
mutagenic call [10]: active; positive
mutagenic call (Test System: AMES SALMONELLA TYPHIMURIUM, Strain/Indicator: TA100, Metabolic Activation: RAT, KIDNEY, CYTOSOL, Method: PREINCUBATION): active; positive

C=Cc1ccccn1
mutagenic call (End Point: In vitro chromosomal aberrations, Test System: Chinese hamster lung (CHL/IU) cells, Metabolic Activation: Rat, Liver, S9, Phenobarbital and 5,6-benzoflavone): active; positive (structural changes)
mutagenic call [1]: inactive; negative
mutagenic call [2]: inactive; negative
mutagenic call [3]: inactive; negative
mutagenic call [4]: inactive; negative
mutagenic call [5]: inactive; negative
mutagenic call [6]: inactive; negative
mutagenic call [7]: inactive; negative
mutagenic call [8]: inactive; negative
mutagenic call (Test System: Ames Salmonella typhimurium, Strain/Indicator: TA98, Metabolic Activation: None, Method: Preincubation): inactive; negative
mutagenic call (Test System: Ames Salmonella typhimurium, Strain/Indicator: TA98, Metabolic Activation: Rat, Liver, S9, Sodium phenobarbital and 5,6-benzoflavone (10%), Method: Preincubation): inactive; negative
mutagenic call (Test System: Ames Salmonella typhimurium, Strain/Indicator: TA100, Metabolic Activation: None, Method: Preincubation): inactive; negative
mutagenic call (Test System: Ames Salmonella typhimurium, Strain/Indicator: TA100, Metabolic Activation: Rat, Liver, S9, Sodium phenobarbital and 5,6-benzoflavone (10%), Method: Preincubation): inactive; negative
mutagenic call (Test System: Ames Salmonella typhimurium, Strain/Indicator: TA1535, Metabolic Activation: None, Method: Preincubation): inactive; negative
mutagenic call (Test System: Ames Salmonella typhimurium, Strain/Indicator: TA1535, Metabolic Activation: Rat, Liver, S9, Sodium phenobarbital and 5,6-benzoflavone (10%), Method: Preincubation): inactive; negative
mutagenic call (Test System: Ames Salmonella typhimurium, Strain/Indicator: TA1537, Metabolic Activation: None, Method: Preincubation): inactive; negative
mutagenic call (Test System: Ames Salmonella typhimurium, Strain/Indicator: TA1537, Metabolic Activation: Rat, Liver, S9, Sodium phenobarbital and 5,6-benzoflavone (10%), Method: Preincubation): inactive; negative
mutagenic call (Test System: E. coli, Strain/Indicator: WP2uvrA/pKM101, Metabolic Activation: Rat, Liver, S9, Sodium phenobarbital and 5,6-benzoflavone (10%), Method: Preincubation): active; positive
mutagenic call (Test System: UDS RAT HEPATOCYTES, Strain/Indicator: THY INCORP, Metabolic Activation: NONE): inactive; negative
